US20250051344A1, “BIFUNCTIONAL SELECTIVE DEGRADERS OF SMARCA2 AND THERAPEUTIC USES THEREOF” (Nurix Therapeutics, Inc., priority 2023, published 2025)

What was measured:
SMARCA2 = target: T1, SMARCA2 (Homo sapiens, UniProt P51531); assay: SMARCA2 Cellular Degradation Assay (Western blot analysis on Jess platform); format: cell-based; settings: for DC50 / Dmax: cellular degradation; for Fold Selectivity SMARCA4/2: ratio DC50 SMARCA4 / DC50 SMARCA2
T1 construct: endogenous in cells
Procedure, shortened: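 Cells recovered from tumors are lysed, cleared at 20,817×g, and protein is quantified by BCA. Equal protein (5 μg) is then probed on Jess for SMARCA2 and actin, and normalized SMARCA2 signal is reported against vehicle.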

SMARCA4 = target: T2, SMARCA4 (Homo sapiens, UniProt P51532); assay: Cellular degradation assay, SMARCA4 (Table 1); format: cell-based
T2 construct: endogenous in cells
T2 sequence (P51532 whole entry, species assumed): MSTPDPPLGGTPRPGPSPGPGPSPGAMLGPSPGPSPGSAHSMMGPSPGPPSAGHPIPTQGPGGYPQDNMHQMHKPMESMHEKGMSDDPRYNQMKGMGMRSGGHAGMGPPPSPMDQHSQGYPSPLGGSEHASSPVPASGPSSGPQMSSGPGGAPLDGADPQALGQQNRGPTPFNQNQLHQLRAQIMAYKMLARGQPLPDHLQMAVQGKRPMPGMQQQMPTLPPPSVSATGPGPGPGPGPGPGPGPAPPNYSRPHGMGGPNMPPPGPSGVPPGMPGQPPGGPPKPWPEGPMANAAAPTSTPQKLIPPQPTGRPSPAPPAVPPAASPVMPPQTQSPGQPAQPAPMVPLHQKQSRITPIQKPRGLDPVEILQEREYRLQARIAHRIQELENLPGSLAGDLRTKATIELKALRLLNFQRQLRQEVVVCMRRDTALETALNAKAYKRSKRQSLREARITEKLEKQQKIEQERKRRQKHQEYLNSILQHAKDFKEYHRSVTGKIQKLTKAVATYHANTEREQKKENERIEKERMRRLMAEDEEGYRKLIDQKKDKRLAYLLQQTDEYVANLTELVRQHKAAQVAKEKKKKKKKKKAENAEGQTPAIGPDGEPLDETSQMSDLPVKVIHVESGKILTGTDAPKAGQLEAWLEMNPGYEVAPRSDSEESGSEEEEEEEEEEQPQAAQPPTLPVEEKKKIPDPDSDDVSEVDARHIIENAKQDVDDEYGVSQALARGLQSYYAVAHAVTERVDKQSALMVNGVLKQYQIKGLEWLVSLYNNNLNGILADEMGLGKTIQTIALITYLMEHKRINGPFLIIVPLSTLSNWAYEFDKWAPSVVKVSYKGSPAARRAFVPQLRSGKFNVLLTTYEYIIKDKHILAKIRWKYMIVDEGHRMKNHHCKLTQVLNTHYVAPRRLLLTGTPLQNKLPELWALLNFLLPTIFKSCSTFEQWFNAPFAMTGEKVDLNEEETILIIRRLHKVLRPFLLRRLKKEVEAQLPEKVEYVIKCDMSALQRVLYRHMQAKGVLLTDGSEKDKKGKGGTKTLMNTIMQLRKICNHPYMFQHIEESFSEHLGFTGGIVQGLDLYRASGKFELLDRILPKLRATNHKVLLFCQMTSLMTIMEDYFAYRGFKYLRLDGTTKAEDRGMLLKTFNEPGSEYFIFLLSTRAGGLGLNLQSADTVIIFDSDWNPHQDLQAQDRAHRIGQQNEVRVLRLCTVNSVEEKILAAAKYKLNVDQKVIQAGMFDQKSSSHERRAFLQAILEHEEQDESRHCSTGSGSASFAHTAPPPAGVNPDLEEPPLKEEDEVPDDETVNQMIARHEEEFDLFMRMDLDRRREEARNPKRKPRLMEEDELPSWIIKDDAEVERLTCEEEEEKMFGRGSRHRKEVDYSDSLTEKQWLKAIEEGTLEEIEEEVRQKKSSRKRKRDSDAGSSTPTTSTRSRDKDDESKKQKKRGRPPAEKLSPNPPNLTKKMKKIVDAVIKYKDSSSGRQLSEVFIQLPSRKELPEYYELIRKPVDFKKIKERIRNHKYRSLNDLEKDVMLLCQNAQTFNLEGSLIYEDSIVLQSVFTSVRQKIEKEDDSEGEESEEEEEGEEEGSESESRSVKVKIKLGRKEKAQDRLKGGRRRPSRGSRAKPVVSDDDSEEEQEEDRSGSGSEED

T1 sequence (P51531 whole entry, species assumed): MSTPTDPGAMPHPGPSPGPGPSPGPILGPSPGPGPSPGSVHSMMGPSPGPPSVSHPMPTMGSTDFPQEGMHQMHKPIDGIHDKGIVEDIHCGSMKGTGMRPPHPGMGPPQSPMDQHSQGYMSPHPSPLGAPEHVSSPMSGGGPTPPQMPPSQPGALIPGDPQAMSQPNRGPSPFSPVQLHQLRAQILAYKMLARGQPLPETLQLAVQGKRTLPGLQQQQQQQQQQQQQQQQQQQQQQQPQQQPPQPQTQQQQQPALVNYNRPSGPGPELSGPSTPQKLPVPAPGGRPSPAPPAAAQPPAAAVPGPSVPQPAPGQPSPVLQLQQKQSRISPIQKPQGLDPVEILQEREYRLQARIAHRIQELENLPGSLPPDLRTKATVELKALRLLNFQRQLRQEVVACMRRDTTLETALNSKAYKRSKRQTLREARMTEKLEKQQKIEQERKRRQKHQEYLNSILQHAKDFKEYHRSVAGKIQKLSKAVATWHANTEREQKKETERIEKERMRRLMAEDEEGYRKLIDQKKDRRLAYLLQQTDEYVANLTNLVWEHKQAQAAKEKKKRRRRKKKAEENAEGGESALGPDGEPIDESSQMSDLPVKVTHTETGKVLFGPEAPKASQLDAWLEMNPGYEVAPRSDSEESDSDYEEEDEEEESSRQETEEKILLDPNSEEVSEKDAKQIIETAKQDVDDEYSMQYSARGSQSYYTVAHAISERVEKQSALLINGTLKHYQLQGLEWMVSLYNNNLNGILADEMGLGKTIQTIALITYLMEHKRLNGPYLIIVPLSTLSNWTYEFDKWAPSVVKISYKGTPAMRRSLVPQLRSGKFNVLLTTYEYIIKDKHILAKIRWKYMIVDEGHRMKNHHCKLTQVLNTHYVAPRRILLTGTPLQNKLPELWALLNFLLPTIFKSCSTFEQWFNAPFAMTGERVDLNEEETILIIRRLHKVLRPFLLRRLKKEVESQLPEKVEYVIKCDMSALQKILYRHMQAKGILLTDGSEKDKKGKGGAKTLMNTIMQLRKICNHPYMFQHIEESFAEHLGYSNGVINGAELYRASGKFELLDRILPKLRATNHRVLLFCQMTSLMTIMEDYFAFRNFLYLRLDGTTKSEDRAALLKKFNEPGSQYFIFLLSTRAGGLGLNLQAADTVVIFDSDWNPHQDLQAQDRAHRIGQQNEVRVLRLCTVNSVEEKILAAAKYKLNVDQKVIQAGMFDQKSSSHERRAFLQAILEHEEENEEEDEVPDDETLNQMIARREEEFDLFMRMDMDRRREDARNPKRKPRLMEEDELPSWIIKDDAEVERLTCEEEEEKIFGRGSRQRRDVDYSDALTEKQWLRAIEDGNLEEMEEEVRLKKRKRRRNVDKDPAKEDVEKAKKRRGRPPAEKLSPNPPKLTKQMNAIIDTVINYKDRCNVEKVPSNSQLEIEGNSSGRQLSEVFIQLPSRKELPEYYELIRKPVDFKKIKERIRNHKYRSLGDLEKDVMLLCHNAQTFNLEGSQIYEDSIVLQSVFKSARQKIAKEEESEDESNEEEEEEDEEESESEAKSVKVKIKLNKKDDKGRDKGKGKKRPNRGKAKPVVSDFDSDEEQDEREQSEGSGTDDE

Row | SMILES | DC50 (SMARCA2) [nM] | Dmax (SMARCA2) [%] | Fold Selectivity SMARCA4/2 (SMARCA2) | Dmax (SMARCA4) [%] | DC50 (SMARCA4) [nM]
1 | CN(C(=O)CN1CCN(c2ccc([C@H]3CCC(=O)NC3=O)cc2)CC1)[C@H]1CC[C@H](NC(=O)C2(Oc3ccccc3)CCN(c3cnnc(-c4ccccc4O)c3)CC2)CC1 (racemic) [Example 173, 1-[6-(2-hydroxyphenyl)pyridazin-4-yl]-4-phenoxy-N-[(1r,4r)-4-[2-(4-{4-[(3R)-2,6-dioxopiperidin-3-yl]phenyl}piperazin-1-yl)-N-methylacetamido]cyclohexyl]piperidine-4-carboxamide] | 44.9 | 62 | 223 | 39.8 | 
2 | O=C1CC[C@H](c2ccc(N3CCC(CN[C@H]4CC[C@H](NC(=O)C5(c6ccccc6)CCN(c6cnnc(-c7ccccc7O)c6)CC5)CC4)CC3)cc2)C(=O)N1 (racemic) [Example 175, 1-[6-(2-hydroxyphenyl)pyridazin-4-yl]-4-phenyl-N-[(1r,4r)-4-{[(1-{4-[(3RS)-2,6-dioxopiperidin-3-yl]phenyl}piperidin-4-yl)methyl]amino}cyclohexyl]piperidine-4-carboxamide] | 29.8 | 60.2 | 335 | 35.6 | 
3 | CC1(CN2CCC(c3ccc(C4CCC(=O)NC4=O)cc3)CC2)CCN(C(=O)C2(c3ccccc3)CCN(c3cnnc(-c4ccccc4O)c3)CC2)C1 (racemic) [Example 176, rac-(3R)-3-(4-{1-[(1-{1-[6-(2-hydroxyphenyl)pyridazin-4-yl]-4-phenylpiperidine-4-carbonyl}-3-methylpyrrolidin-3-yl)methyl]piperidin-4-yl}phenyl)piperidine-2,6-dione] | 22.3 | 76.8 | 449 | 53 | 
4 | O=C1CCC(Nc2ccc(C3CCN(CC4CCC45CN(C(=O)C4(c6ccccc6)CCN(c6cnnc(-c7ccccc7O)c6)CC4)C5)CC3)cc2)C(=O)N1 (racemic) [Example 177, rac-(3R)-3-[(4-{1-[(2-{1-[6-(2-hydroxyphenyl)pyridazin-4-yl]-4-phenylpiperidine-4-carbonyl}-2-azaspiro[3.3]heptan-5-yl)methyl]piperidin-4-yl}phenyl)amino]piperidine-2,6-dione] | 3.53 | 71.5 | 6 | 54.5 | 21.6
5 | O=C1CC[C@H](c2ccc(N3CCC4(CC3)CC(N[C@H]3CC[C@H](NC(=O)C5(c6ccccc6)CCN(c6cnnc(-c7ccccc7O)c6)CC5)CC3)CO4)cc2)C(=O)N1 (mixture of isomers) [Example 178, 1-[6-(2-hydroxyphenyl)pyridazin-4-yl]-4-phenyl-N-[(1r,4r)-4-[(8-{4-[(3RS)-2,6-dioxopiperidin-3-yl]phenyl}-1-oxa-8-azaspiro[4.5]decan-3-yl)amino]cyclohexyl]piperidine-4-carboxamide] | 10.1 | 76.2 | 7 | 62.2 | 70.3
6 | O=C1CCC(c2ccc(N3CCC(F)(CN4CCC(NC(=O)C5(c6ccccc6)CCN(c6cnnc(-c7ccccc7O)c6)CC5)CC4)CC3)cc2)C(=O)N1 (racemic) [Example 179, rac-N-{1-[(1-{4-[(3R)-2,6-dioxopiperidin-3-yl]phenyl}-4-fluoropiperidin-4-yl)methyl]piperidin-4-yl}-1-[6-(2-hydroxyphenyl)pyridazin-4-yl]-4-phenylpiperidine-4-carboxamide] | 17.9 | 83.4 | 12 | 57.7 | 211
7 | O=C1CCC(c2c(F)cc(N3CCC(CN4CCC5(CC4)CN(C(=O)C4(c6ccccc6)CCN(c6cnnc(-c7ccccc7O)c6)CC4)C5)CC3)cc2F)C(=O)N1 (racemic) [Example 193, rac-(3R)-3-(2,6-difluoro-4-{4-[(2-{1-[6-(2-hydroxyphenyl)pyridazin-4-yl]-4-phenylpiperidine-4-carbonyl}-2,7-diazaspiro[3.5]nonan-7-yl)methyl]piperidin-1-yl}phenyl)piperidine-2,6-dione] | 1.24 | 94.9 | 11 | 84.2 | 13.2
8 | COC1(C(=O)N(C)C2CCN(CCC3CCN(c4ccc(C5CCC(=O)NC5=O)cc4)CC3)CC2)CCN(c2cnnc(-c3ccccc3O)c2)CC1 (racemic) [Example 195, rac-N-(1-(2-(1-(4-(2,6-dioxopiperidin-3-yl)phenyl)piperidin-4-yl)ethyl)piperidin-4-yl)-1-(6-(2-hydroxyphenyl)pyridazin-4-yl)-4-methoxy-n-methylpiperidine-4-carboxamide] | 13.7 | 70 | 727 | 20.3 | 
9 | O=C1CC[C@@H](c2ccc(N3CCC(CN4CCCC(CNC(=O)C5(c6ccccc6)CCN(c6cnnc(-c7ccccc7O)c6)CC5)C4)CC3)cc2)C(=O)N1 (stereo partly drawn) [Example 10, N-({1-[(1-{4-[(3S)-2,6-dioxopiperidin-3-yl]phenyl}piperidin-4-yl)methyl]piperidin-3-yl}methyl)-1-[6-(2-hydroxyphenyl)pyridazin-4-yl]-4-phenylpiperidine-4-carboxamide] | 80.1 | 59.3 | 124.82 | 25.6 | 
10 | O=C1CC[C@H](c2ccc(N3CCC(CN4CC5(C4)CN(C(=O)C4(c6ccccc6)CCN(c6cnnc(-c7ccccc7O)c6)CC4)C5)CC3)cc2)C(=O)N1 [Example 15, (3R)-3-(4-{4-[(6-{1-[6-(2-hydroxyphenyl)pyridazin-4-yl]-4-phenylpiperidine-4-carbonyl}-2,6-diazaspiro[3.3]heptan-2-yl)methyl]piperidin-1-yl}phenyl)piperidine-2,6-dione] | 14.8 | 79.9 | 340.31 | 49.3 | 5030

Further compounds by falling DC50 (SMARCA2), results first:

Row | DC50 (SMARCA2) [nM] | Dmax (SMARCA2) [%] | Fold Selectivity SMARCA4/2 (SMARCA2) | Dmax (SMARCA4) [%] | DC50 (SMARCA4) [nM] | SMILES
11 | 41.4 | 75.1 | 241.66 | 44.6 |  | O=C1CC[C@@H](c2ccc(N3CCC(CN4CC5(C4)CN(C(=O)C4(c6ccccc6)CCN(c6cnnc(-c7ccccc7O)c6)CC4)C5)CC3)cc2)C(=O)N1 [Example 8, (3S)-3-(4-{4-[(6-{1-[6-(2-hydroxyphenyl)pyridazin-4-yl]-4-phenylpiperidine-4-carbonyl}-2,6-diazaspiro[3.3]heptan-2-yl)methyl]piperidin-1-yl}phenyl)piperidine-2,6-dione]
12 | 19.9 | 75.2 | 336.59 | 44.7 | 6720 | O=C1CC[C@@H](c2ccc(N3CCC(CN4CCC5(C4)CN(C(=O)C4(c6ccccc6)CCN(c6cnnc(-c7ccccc7O)c6)CC4)C5)CC3)cc2)C(=O)N1 [Example 9, (3S)-3-(4-{4-[(2-{1-[6-(2-hydroxyphenyl)pyridazin-4-yl]-4-phenylpiperidine-4-carbonyl}-2,6-diazaspiro[3.4]octan-6-yl)methyl]piperidin-1-yl}phenyl)piperidine-2,6-dione]
13 | 19.6 | 72.3 | 16 | 42.3 | 317 | O=C1CCC(c2ccc(N3CC[C@H](CCN4CC5(C4)CN(C(=O)C4(c6ccccc6)CCN(c6cnnc(-c7ccccc7O)c6)CC4)C5)C3)nc2)C(=O)N1 (mixture of isomers) [Example 181, (3RS)-3-{6-[(3S)-3-[2-(6-{1-[6-(2-hydroxyphenyl)pyridazin-4-yl]-4-phenylpiperidine-4-carbonyl}-2,6-diazaspiro[3.3]heptan-2-yl)ethyl]pyrrolidin-1-yl]pyridin-3-yl}piperidine-2,6-dione]
14 | 7.48 | 82.6 | 671.32 | 56.1 | 5020 | O=C1CC[C@H](c2ccc(N3CCC(CN4CC5(CCN(C(=O)C6(c7ccccc7)CCN(c7cnnc(-c8ccccc8O)c7)CC6)C5)C4)CC3)cc2)C(=O)N1 [Example 16, (3R)-3-(4-{4-[(6-{1-[6-(2-hydroxyphenyl)pyridazin-4-yl]-4-phenylpiperidine-4-carbonyl}-2,6-diazaspiro[3.4]octan-2-yl)methyl]piperidin-1-yl}phenyl)piperidine-2,6-dione]
15 | 7.34 | 84.9 | 1362 | 41 |  | CN(C(=O)C1(c2ccccc2)CCN(c2cnnc(-c3ccccc3O)c2)CC1)C1CCN([C@H]2COC3(CCN(c4ccc([C@H]5CCC(=O)NC5=O)cc4)CC3)C2)CC1 (single isomer, unassigned) [Example 149]
16 | 7.13 | 88.8 | 20 | 58.5 | 143 | CCN(C(=O)C1(c2ccccc2)CCN(c2cnnc(-c3ccccc3O)c2)CC1)C1CCN(C(=O)CN2CCN(c3ccc(C4CCC(=O)NC4=O)cc3)CC2)CC1 (racemic) [Example 185, rac-N-{1-[2-(4-{4-[(3R)-2,6-dioxopiperidin-3-yl]phenyl}piperazin-1-yl)acetyl]piperidin-4-yl}-N-ethyl-1-[6-(2-hydroxyphenyl)pyridazin-4-yl]-4-phenylpiperidine-4-carboxamide]
17 | 6.84 | 83 | 1462 | 41.4 |  | CN(C(=O)C1(c2ccccc2)CCN(c2cnnc(-c3ccccc3O)c2)CC1)C1CCN([C@@H]2COC3(CCN(c4ccc([C@H]5CCC(=O)NC5=O)cc4)CC3)C2)CC1 (single isomer, unassigned) [Example 148]
18 | 1.71 | 90.6 | 143 | 57.8 | 245 | O=C1CCC(c2c(F)cc(N3CCC(CN4CC[C@@H](NC(=O)C5(c6ccccc6)CCN(c6cnnc(-c7ccccc7O)c6)CC5)CC45CCC5)CC3)cc2F)C(=O)N1 (mixture of isomers) [Example 188, N-[(8RS&)-5-[(1-{4-[(3RS)-2,6-dioxopiperidin-3-yl]-3,5-difluorophenyl}piperidin-4-yl)methyl]-5-azaspiro[3.5]nonan-8-yl]-1-[6-(2-hydroxyphenyl)pyridazin-4-yl]-4-phenylpiperidine-4-carboxamide]
